Results published in patent US4248892A, “Antifibrotic agent” (Takeda Chemical Industries, Ltd., priority 1978, dated 1981).
Like-named read-outs stand apart in the source and are kept apart here.

Columns and labels:
[1] = molecular target: T1, protocollagen prolyl hydroxylase (Gallus gallus, UniProt P16924); assay: Activity to inhibit protocollagen prolyl hydroxylase; format: biochemical, chick embryos; settings: concentration required for 50% inhibition of enzymic activity; pH 7.8, 37° C., 30 minutes; substrate (Pro-Pro-Gly)5.4H2O; read-out: ID50 (the source's name) (converted)
T1 construct: 190 chick embryos (14 days old) were homogenized; from tissue; host or cells: whole 14-day chick embryos; Triton X-100 extract, ammonium sulfate, calcium phosphate gel and DEAE-cellulose fractions
T1 sequence (P16924 1-516): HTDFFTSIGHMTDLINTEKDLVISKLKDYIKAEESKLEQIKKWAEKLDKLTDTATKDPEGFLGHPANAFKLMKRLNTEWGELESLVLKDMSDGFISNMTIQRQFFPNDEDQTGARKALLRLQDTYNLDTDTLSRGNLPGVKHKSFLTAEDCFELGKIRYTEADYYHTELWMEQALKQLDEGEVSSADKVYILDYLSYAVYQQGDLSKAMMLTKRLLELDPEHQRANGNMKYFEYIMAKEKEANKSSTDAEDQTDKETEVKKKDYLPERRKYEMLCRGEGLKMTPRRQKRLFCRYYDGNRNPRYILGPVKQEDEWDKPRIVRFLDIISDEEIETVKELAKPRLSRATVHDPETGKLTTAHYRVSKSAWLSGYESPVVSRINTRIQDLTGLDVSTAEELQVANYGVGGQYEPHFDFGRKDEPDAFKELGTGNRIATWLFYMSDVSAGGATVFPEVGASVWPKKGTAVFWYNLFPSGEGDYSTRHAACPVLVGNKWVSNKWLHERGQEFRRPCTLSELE
T1 sequence (P09102 23-515 partner): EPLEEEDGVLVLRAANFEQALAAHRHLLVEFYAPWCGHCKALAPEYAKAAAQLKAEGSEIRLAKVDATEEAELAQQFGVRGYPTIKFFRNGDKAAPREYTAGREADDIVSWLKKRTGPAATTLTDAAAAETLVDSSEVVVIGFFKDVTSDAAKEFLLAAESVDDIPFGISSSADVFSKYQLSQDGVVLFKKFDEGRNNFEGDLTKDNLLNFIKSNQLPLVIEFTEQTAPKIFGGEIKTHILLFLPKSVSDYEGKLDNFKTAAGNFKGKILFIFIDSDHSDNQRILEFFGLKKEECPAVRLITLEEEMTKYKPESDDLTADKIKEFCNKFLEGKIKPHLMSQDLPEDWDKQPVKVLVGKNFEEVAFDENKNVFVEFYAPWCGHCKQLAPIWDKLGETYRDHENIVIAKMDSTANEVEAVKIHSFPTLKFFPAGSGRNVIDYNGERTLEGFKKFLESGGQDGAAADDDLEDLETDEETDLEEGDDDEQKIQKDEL
Method: Method for the preparation of protocollagen prolyl hydroxylase: The method of K.I. Kivirikko et al and that of J. Halme et al were partially modified. [cf. Journal of Biological Chemistry 242, 4007 (1967) and Biochimica et Biophysica Acta 198, 460 (1970)]. Thus, 190 chick embryos (14 days old) were homogenized in 1600 ml of NaCl-GlycineTris[tris(hydroxymethyl)aminomethane]-HCl buffer containing 0.1% Triton [polyethylene glycol p-isooctylphenyl ether] X-100 (pH 7.5) and centrifuged. […]
Thus, 1.5 ml of a reaction mixture containing 50 μmols of Tris-HCl buffer (pH 7.8), 0.1 μmol of 1-^14 C-α-ketoglutarate (0.016 μ Ci), 0.5 μmol of ascorbate, 0.1 μmol of ferrous ammonium sulfate, 4.0 mg of heat denatured bovine serum albumin, 0.1 mg of crystalline bovine liver catalase, 0.15 μmol of dithiothreitol, 0.15 mg of (Pro-Pro-Gly)5.4H2 O, 0.5 ml of the enzyme solution and 0.1 ml of either methanol or methanol solution containing an inhibitor was put in a sealed test tube in which a filter paper impregnated with Hyamine (Hydroxide and Hyamine 10-X (Packard Instrument Co.)] had been hung and the reaction was carried out under shaking at 37° C. for 30 minutes. The reaction was terminated by the addition of 0.5 ml of 25% trichloroacetic acid and the enzymic activity was determined by measuring the radioactivity of the released ^14 CO2 trapped in filterpaper. […]

collagen biosynthesis [2] = assay: Inhibition of collagen biosynthesis in normal rats (uteri of 17-β-estradiol-stimulated immature rats); format: in vivo, SD rats (female, 3 weeks old); settings: i.p. 100 mg/kg at intervals of 24 hours, 6 days; for inhibition at 100 mg/kg: Rattus norvegicus, ip, vs 17-β-estradiol control
Method: According to the partially modified method of R.A. Salvador et al [Archives of Biochemistry and Biophysics 174, 382 (1976)], the following experiment was carried out with SD rats (female, 3 weeks old) in groups of 4 animals.
The test compound suspended in 4% gum arabic-physiological saline was intraperitoneally administered to rats in doses of 100 mg/kg at intervals of 24 hours for 6 consecutive days.
During the final 3 days, 5 μg/rat of 17-β-estradiol in 5% ethanol-saline solution or 5% ethanol-saline solution was administered one hour after the administration of compound (I). On the 7th day, each rat was killed and the uterus was excised, washed with ethanol-diethylether, dried at 60° C. for 2 hours and weighted to know the dry weight. The dry preparation was hydrolyzed with 3 ml of 6N-HCl at 110° C. for 22 hours, after which it was concentrated to dryness to remove the hydrochloric acid. The total amino acid in the hydrolyzate was determined by ninhydrin assay and from this value the total protein content of uterus was calculated as leucine equivalent. The amount of hydroxyproline in the hydrolyzate was also measured by the method of Blumenkratz et al [Analytical Biochemistry 63, 331 (1975)] and multiplied by 7.23 to obtain the amount of collagen. The amount of noncollagenous protein was calculated by substracting the amount of collagen from the total amount of protein.
The inhibitory activity of this compound on the synthesis of collagen and noncollagenous protein in the uteri of 17-β-estradiol-stimulated immature rats are shown as % reductions in the amounts of collagen and noncollagenous protein. Inhibition rate is calculated by the equation described in the legend of Table 2.

[3] = system: protocollagen prolyl hydroxylase; assay: Protocollagen prolyl hydroxylase activity in liver in carbon tetrachloride-induced hepatic cirrhosis; format: in vivo, Male Sprague-Dawley rats; settings: CCl4 + compound, i.p. 100 mg/kg three times weekly, total 10 doses, dpm = decay per minute
Method: (§1) Male Sprague-Dawley rats weighting approximately 150 g each were divided into three groups. The first group received both 10% CCl4 -olive oil mixture (1 ml/rat) and compound (I) (100 mg/kg) intraperitoneally three times weekly for a total 10 doses. The second and third groups received 10% CCl4 -olive oil mixture (1 ml/rat) and olive oil (1 ml/rat) intraperitoneally three times weekly for a total 10 doses, respectively. The rats were sacrificed two days after the last injection and the livers were immediately removed for the assays.
A 10% homogenate of the liver was prepared in 20 m mol/l Tris-HCl buffer (pH 7 5) containing 0.2 mol/l NaCl, 0.1 mol/l glycine, 5×10^-5 mol/l 1,4-dithiothreitol, and 0.1% Triton X-100 using a Polytron homogenizer. The homogenate was centrifuged at 15,000 g for 20 minutes and the clear supernatant was assayed for protocollagen prolyl hydroxylase activity by the method of Hutton et al [Analytical Biochemistry 16, 384 (1966)]. The protein content of the homogenate was measured by the method of Lowry et al [Journal of Biological Chemistry 193, 265 (1951)] using bovine serum albumin as the standard.
(§2) The specific activity of protocollagen prolyl hydroxylase and hydroxyproline content in the liver treated with the compound as shown in Table 3.

collagen biosynthesis [4] = assay: Hydroxyproline content of liver in carbon tetrachloride-induced hepatic cirrhosis; format: in vivo, Male Sprague-Dawley rats; settings: CCl4 + compound, i.p. 100 mg/kg three times weekly, total 10 doses
Method: as §1
Hydroxyproline content of the livers was measured in a 6N-HCl hydrolysate (110° C., 22h) by the method of Blumenkrantz et al.
as §2

Acute toxicity = assay: Acute toxicity; set-up: species or system male 4-week-old mice; settings: mouse, in vivo, ip; intraperitoneal; mice, groups of 5; 8 days observation
Method: Protocatechuic acid was intraperitoneally administered to male 4-week-old mice in groups of 5 animals and the animals were kept under observation for 8 days. The LD50 values thus found was >400 mg/kg for it.

[5] = 17-β-estradiol + compound, uterus, 7th day

In the case of `O=C(O)Cc1ccc(O)c(O)c1` [Homoprotocatechnic acid, homoprotocatechuic acid], the IC50 [1] is reported as 17.8 µM.
With `O=C(O)c1ccc(O)c(O)c1` [Protocatechuic acid, protocatechuic acid] the “Body weight of rats, 7th day” value (collagen biosynthesis [2]; 17-β-estradiol + compound) was 75 ± 3 g, the Total collagen (collagen biosynthesis [2]; [5]) was 3.31 ± 0.37 mg/uterus and the Total protein (collagen biosynthesis [2]; [5]) was 25.4 ± 2.2 mg/uterus. The inhibition at 100 mg/kg (collagen biosynthesis [2]; uterus, read-out: Inhibition rate, collagen) was 85%, the inhibition at 100 mg/kg (collagen biosynthesis [2]; uterus, read-out: Inhibition rate, noncollagenous protein) was 15% and the Prolyl hydroxylase [3] was 1463 ± 236 dpm/mg of protein. The IC50 [1] was 19.5 µM, the Hydroxyproline (collagen biosynthesis [4]) was 0.70 ± 0.09 μg/mg of liver and the LD50 at 192 h (Acute toxicity) was over 400 mg/kg.
